Measurements reported in patent US8158830B1, “Integrated process for the preparation of tetraaminobenzene” (E. I. du Pont de Nemours and Company, priority 2007, dated 2012).

Test: solubility of TAB.4HCl in water
Assay type: physicochemical
Settings: water at 25° C.
Description: The reaction mixture containing the precipitated TAB salt is then cooled to about 5° C. to about 15° C. and stirred, then filtered. The TAB salt is then washed 44. It may be washed with deaerated aqueous acid, such as HCl (33%), and then optionally with deaerated ethanol or methanol to produce a wet cake material; the optional ethanol or methanol wash can then be recycled 48, 47, and a purge is drawn to prevent accumulation. Using an agitated filter unit during the wash procedures can allow for a reduction of the wash volumes. Under such circumstances, using small amounts of cold water (e.g. about 5° C.) instead of the aqueous acid would also be effective as the TAB salt would have lower solubility in the cold water than it would have in water at about room temperature (e.g. 25° C.). For example, the solubility of TAB.4HCl in water at 25° C. is about 15 wt %.

**Q.** For Nc1cc(N)c(N)cc1N [TAB.4HCl, 1,2,4,5-tetraminobenzene], which solubility in water is on record?
**A.** The solubility in water was “about 15 wt %”.
